According to paper PMC3317655, “The Isolation and Characterization of β-Glucogallin as a Novel Aldose Reductase Inhibitor from Emblica officinalis” (PLoS ONE, 2012):

Tests used:
[1] = molecular target: T1, human aldose reductase (AKR1B1) (Homo sapiens, UniProt P15121); test: Purified recombinant enzyme, NADPH oxidation at […] nm, saturating glucose ([…]) as substrate; type: biochemical
[2] = molecular target: T1, human aldose reductase (AKR1B1); test: Ex vivo culture of transgenic mouse lenses expressing human AKR1B1; sorbitol accumulation at […] sorbinil; type: cell-based; conditions: read-out: % inhibition of sorbitol accumulation at 10 μM

O=C(O[C@@H]1O[C@H](CO)[C@@H](O)[C@H](O)[C@H]1O)c1cc(O)c(O)c(O)c1 [β-glucogallin]
IC50 [1]: 17 ± 1 µM

O=C1NC(=O)[C@@]2(CCOc3ccc(F)cc32)N1 [sorbinil]
inhibition at 10 µM [2]: 97%
